Results taken from patent publication US20220313698A1, “MODULATORS OF CYSTIC FIBROSIS TRANSMEMBRANE CONDUCTANCE REGULATOR” (Vertex Pharmaceuticals Incorporated, priority 2019, published 2022).

Biological target: CFTR-mediated chloride transport (Homo sapiens, UniProt P13569)
Test: Corrector Assay A - membrane potential dye assay (enteroid cells)
Conditions: for Corrector Assay A % activity: % of chloride transport of triple combination control (1 μM (14S)-dispiro macrocycle + 3 μM tezacaftor + 300 nM ivacaftor); for EC50: read-out: Corrector Assay A EC50, human intestinal enteroid cells, 18-24 h incubation, acute 10 μM forskolin + 300 nM ivacaftor

| Corrector Assay A % activity | EC50 [nM] | Structure (SMILES) |
| --- | --- | --- |
| + (+ is <30%) | > 3000 | CC(C)(C)c1ccc2c(n1)N1CC(CCN(c3ccccc3)C(=O)c3cccc(c3)S(=O)(=O)NC2=O)CC1(C)C (single isomer, unassigned) [Compound 267, 8-tert-Butyl-12,12-dimethyl-17-phenyl-2λ^6-thia-3,9,11,17-tetraazatetracyclo[17.3.1.111,14.05,10]tetracosa-1(22),5,7,9,19(23),20-hexaene-2,2,4,18-tetrone] |
| +++ (+++ is >60%) | < 1000 | CC(C)(C)c1ccc2c(n1)N1C[C@@H](CC[C@@H](C3CCOCC3)Nc3cccc(n3)S(=O)(=O)NC2=O)CC1(C)C (single isomer, unassigned) [Compound 268] |
| + (+ is <30%) | – | CC(C)CN1c2cccc(n2)S(=O)(=O)NC(=O)c2ccc(C(C)(C)C)nc2N2C[C@@H](CC[C@H]1c1ccccc1)CC2(C)C (single isomer, unassigned) [Compound 271] |
| ++ (++ is 30-60%) | < 1000 | CC(C)(C)c1ccc2c(n1)N1C[C@@H](CCC(c3ccccc3)n3ccc(n3)S(=O)(=O)NC2=O)CC1(C)C (single isomer, unassigned) [Compound 274] |
| ++ (++ is 30-60%) | < 1000 | COC[C@@H]1CC[C@@H]2CN(c3nc(C(C)(C)C)ccc3C(=O)NS(=O)(=O)c3cccc(n3)N1)C(C)(C)C2 (single isomer, unassigned) [Compound 276] |
| +++ (+++ is >60%) | < 1000 | COC[C@@H]1CC[C@@H]2CN(c3nc(C(C)(C)C)ccc3C(=O)NS(=O)(=O)c3cccc(n3)N1)C(C)(C)C2 (single isomer, unassigned) [Compound 277] |
| +++ (+++ is >60%) | < 1000 | Cn1ccc(C2CC[C@@H]3CN(c4nc(C(C)(C)C)ccc4C(=O)NS(=O)(=O)c4cccc(n4)N2)C(C)(C)C3)n1 (single isomer, unassigned) [Compound 279] |
| +++ (+++ is >60%) | < 1000 | CC(C)COc1cc(F)cc(-c2ccc3c(n2)N2C[C@@H](CCC(c4ccccn4)Nc4cccc(n4)S(=O)(=O)NC3=O)CC2(C)C)c1 (single isomer, unassigned) [Compound 351] |
| ++ (++ is 30-60%) | < 1000 | CC(C)COc1cc(F)cc(-c2ccc3c(n2)N2C[C@@H](CCC(c4ccccn4)Nc4cccc(n4)S(=O)(=O)NC3=O)CC2(C)C)c1 (single isomer, unassigned) [Compound 352] |
| +++ (+++ is >60%) | < 1000 | CC(C)C1CC[C@@H]2CN(c3nc(-n4ccc(OCCC5C6(CC6)C56CC6)n4)ccc3C(=O)NS(=O)(=O)c3cccc(n3)N1)C(C)(C)C2 (single isomer, unassigned) [Compound 354] |
| +++ (+++ is >60%) | < 1000 | CC(C)C1CC[C@@H]2CN(c3nc(-n4ccc(OCCC5(C(F)(F)F)CC5)n4)ccc3C(=O)NS(=O)(=O)c3cccc(n3)N1)C(C)(C)C2 (single isomer, unassigned) [Compound 357] |
| ++ (++ is 30-60%) | < 1000 | CC(C)(C)c1ccc2c(n1)N1CC(CCC(C(C)(C)O)Nc3cccc(n3)S(=O)(=O)NC2=O)CC1(C)C (stereo not shown) [Compound 13] |
| +++ (+++ is >60%) | < 1000 | CC(C)(C)c1ccc2c(n1)N1C[C@@H](CCC(CCCC(=O)NCc3ccccc3)Nc3cccc(n3)S(=O)(=O)NC2=O)CC1(C)C (stereo partly drawn) [Compound 15, N-benzyl-4-[(14S)-8-tert-butyl-12,12-dimethyl-2,2,4-trioxo-2λ^6-thia-3,9,11,18,23-pentaazatetracyclo[17.3.1.111,14.05,10]tetracosa-1(23),5(10),6,8,19,21-hexaen-17-yl]butanamide] |

The remaining lines, values behind:

| Structure (SMILES) | Corrector Assay A % activity | EC50 [nM] |
| --- | --- | --- |
| CC(C)(C)c1ccc2c(n1)N1C[C@@H](CC[C@@H](C3CCOCC3)Nc3cccc(n3)S(=O)(=O)NC2=O)CC1(C)C (single isomer, unassigned) [Compound 269] | ++ (++ is 30-60%) | < 1000 |
| CC(C)CN1c2cccc(n2)S(=O)(=O)NC(=O)c2ccc(C(C)(C)C)nc2N2C[C@@H](CCC1c1ccccc1)CC2(C)C (single isomer, unassigned) [Compound 270] | + (+ is <30%) | – |
| CC1CCC2CN(c3nc(C(C)(C)C)ccc3C(=O)NS(=O)(=O)c3ccn1n3)C(C)(C)C2 (single isomer, unassigned) [Compound 272] | +++ (+++ is >60%) | < 1000 |
| CC1CCC2CN(c3nc(C(C)(C)C)ccc3C(=O)NS(=O)(=O)c3ccn1n3)C(C)(C)C2 (single isomer, unassigned) [Compound 273] | ++ (++ is 30-60%) | 1000 to 3000 |
| CC(C)(C)c1ccc2c(n1)N1C[C@@H](CCC(c3ccccc3)n3ccc(n3)S(=O)(=O)NC2=O)CC1(C)C (single isomer, unassigned) [Compound 275] | ++ (++ is 30-60%) | < 1000 |
| Cn1ccc(C2CC[C@@H]3CN(c4nc(C(C)(C)C)ccc4C(=O)NS(=O)(=O)c4cccc(n4)N2)C(C)(C)C3)n1 (single isomer, unassigned) [Compound 278] | ++ (++ is 30-60%) | < 1000 |
| Cn1cc(C2CC[C@@H]3CN(c4nc(C(C)(C)C)ccc4C(=O)NS(=O)(=O)c4cccc(n4)N2)C(C)(C)C3)cn1 (single isomer, unassigned) [Compound 280] | +++ (+++ is >60%) | < 1000 |
| Cn1cc(C2CC[C@@H]3CN(c4nc(C(C)(C)C)ccc4C(=O)NS(=O)(=O)c4cccc(n4)N2)C(C)(C)C3)cn1 (single isomer, unassigned) [Compound 281] | +++ (+++ is >60%) | < 1000 |
| CC(C)(C)c1ccc2c(n1)N1C[C@@H](CCC(c3cccnc3)Nc3cccc(n3)S(=O)(=O)NC2=O)CC1(C)C (single isomer, unassigned) [Compound 282] | +++ (+++ is >60%) | < 1000 |
| CC(C)(C)c1ccc2c(n1)N1C[C@@H](CCC(c3cccnc3)Nc3cccc(n3)S(=O)(=O)NC2=O)CC1(C)C (single isomer, unassigned) [Compound 283] | +++ (+++ is >60%) | < 1000 |
| Cn1nccc1C1CC[C@@H]2CN(c3nc(C(C)(C)C)ccc3C(=O)NS(=O)(=O)c3cccc(n3)N1)C(C)(C)C2 (single isomer, unassigned) [Compound 284] | ++ (++ is 30-60%) | < 1000 |
| Cn1nccc1C1CC[C@@H]2CN(c3nc(C(C)(C)C)ccc3C(=O)NS(=O)(=O)c3cccc(n3)N1)C(C)(C)C2 (single isomer, unassigned) [Compound 285] | +++ (+++ is >60%) | < 1000 |
| CC(C)C1CC[C@@H]2CN(c3nc(C(C)(C)C)ccc3C(=O)NS(=O)(=O)c3cccc(n3)N1)C(C)(C)C2 (single isomer, unassigned) [Compound 286] | +++ (+++ is >60%) | < 1000 |
| CC(C)C1CC[C@@H]2CN(c3nc(C(C)(C)C)ccc3C(=O)NS(=O)(=O)c3cccc(n3)N1)C(C)(C)C2 (single isomer, unassigned) [Compound 287] | +++ (+++ is >60%) | < 1000 |
| CC(C)C1CC[C@@H]2CN(c3nc(-n4ccc(OCCC5C6(CC6)C56CC6)n4)ccc3C(=O)NS(=O)(=O)c3cccc(n3)N1)C(C)(C)C2 (single isomer, unassigned) [Compound 353] | +++ (+++ is >60%) | < 1000 |
| CC(C)(C)c1ccc2c(n1)N1C[C@@H](CCC(C(C)(C)O)Nc3cccc(n3)S(=O)(=O)NC2=O)CC1(C)C (stereo partly drawn) [Compound 12, (14S)-8-tert-Butyl-17-(2-hydroxypropan-2-yl)-12,12-dimethyl-2λ^6-thia-3,9,11,18,23-pentaazatetracyclo[17.3.1.111,14.05,10]tetracosa-1(23),5(10),6,8,19,21-hexaene-2,2,4-trione] | +++ (+++ is >60%) | < 1000 |
| CC(C)(C)c1ccc2c(n1)N1C[C@@H](CCC3CCCC(=O)N3c3cccc(n3)S(=O)(=O)NC2=O)CC1(C)C (stereo partly drawn) [Compound 14, (10S)-16-tert-Butyl-12,12-dimethyl-22λ^6-thia-2,13,15,21,27-pentaazapentacyclo[21.3.1.110,13.02,7.014,19]octacosa-1(26),14(19),15,17,23(27),24-hexaene-3,20,22,22-tetrone] | ++ (++ is 30-60%) | < 1000 |
| CC(C)(C)NC(=O)CCCC1CC[C@@H]2CN(c3nc(C(C)(C)C)ccc3C(=O)NS(=O)(=O)c3cccc(n3)N1)C(C)(C)C2 (stereo partly drawn) [Compound 16, N-tert-butyl-4-[(14S)-8-tert-butyl-12,12-dimethyl-2,2,4-trioxo-2λ^6-thia-3,9,11,18,23-pentaazatetracyclo[17.3.1.111,14.05,10]tetracosa-1(23),5(10),6,8,19,21-hexaen-17-yl]butanamide] | +++ (+++ is >60%) | < 1000 |
| CC(C)N(C(=O)CCCC1CC[C@@H]2CN(c3nc(C(C)(C)C)ccc3C(=O)NS(=O)(=O)c3cccc(n3)N1)C(C)(C)C2)C(C)C (stereo partly drawn) [Compound 17, 4-[(14S)-8-tert-butyl-12,12-dimethyl-2,2,4-trioxo-2λ^6-thia-3,9,11,18,23-pentaazatetracyclo[17.3.1.111,14.05,10]tetracosa-1(23),5(10),6,8,19,21-hexaen-17-yl]-N,N-bis(propan-2-yl)butanamide] | +++ (+++ is >60%) | < 1000 |
| CN(C)C(=O)CCCC1CC[C@@H]2CN(c3nc(C(C)(C)C)ccc3C(=O)NS(=O)(=O)c3cccc(n3)N1)C(C)(C)C2 (stereo partly drawn) [Compound 18, 4-[(14S)-8-tert-Butyl-12,12-dimethyl-2,2,4-trioxo-2λ^6-thia-3,9,11,18,23-pentaazatetracyclo[17.3.1.111,14.05,10]tetracosa-1(23),5(10),6,8,19,21-hexaen-17-yl]-N,N-dimethylbutanamide] | +++ (+++ is >60%) | < 1000 |
